Data taken from patent US11485726B2, “Compound for inhibiting and degrading tyrosine protein kinase ALK” (SHANGHAI MEIZER PHARMACEUTICALS CO., LTD., priority 2017, dated 2022).

Columns and labels:
ALK kinase [1] = biological target: T1, ALK kinase (Homo sapiens, UniProt Q9UM73); experiment: ALK protein degradation activity by Western blot in H2228 cells; format: cell-based; set-up: H2228 cell lines (human non-small cell line lung cancer cells, available from ATCC); host or cells: H2228 (human non-small cell lung cancer cells); the other entry of the earlier key: EML4 (Q9HC35, Echinoderm microtubule-associated protein-like 4); details: NCI-H2228, compound 1 μM, treatment for 24 hours, degradation rate by Western blot
Target sequence in this assay (Q9UM73 with tags, fused parts or gaps): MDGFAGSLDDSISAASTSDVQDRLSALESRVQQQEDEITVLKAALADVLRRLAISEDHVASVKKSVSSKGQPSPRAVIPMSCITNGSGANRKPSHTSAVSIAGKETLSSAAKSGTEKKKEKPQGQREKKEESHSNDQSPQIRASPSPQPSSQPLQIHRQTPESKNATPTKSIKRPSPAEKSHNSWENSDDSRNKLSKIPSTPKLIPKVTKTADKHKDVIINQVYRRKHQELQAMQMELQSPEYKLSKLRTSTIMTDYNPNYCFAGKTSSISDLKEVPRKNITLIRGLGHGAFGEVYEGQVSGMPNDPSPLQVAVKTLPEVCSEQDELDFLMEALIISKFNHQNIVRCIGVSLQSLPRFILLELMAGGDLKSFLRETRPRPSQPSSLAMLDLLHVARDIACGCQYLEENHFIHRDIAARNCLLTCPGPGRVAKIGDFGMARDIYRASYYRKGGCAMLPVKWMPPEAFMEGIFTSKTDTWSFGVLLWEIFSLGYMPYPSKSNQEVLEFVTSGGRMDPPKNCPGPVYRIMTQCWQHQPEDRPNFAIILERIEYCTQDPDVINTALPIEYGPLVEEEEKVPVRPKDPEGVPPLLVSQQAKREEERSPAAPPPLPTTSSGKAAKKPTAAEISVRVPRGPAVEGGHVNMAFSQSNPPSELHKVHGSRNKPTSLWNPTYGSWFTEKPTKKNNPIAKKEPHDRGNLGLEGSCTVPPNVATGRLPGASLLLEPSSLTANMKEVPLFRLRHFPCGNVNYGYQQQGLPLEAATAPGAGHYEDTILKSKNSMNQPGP

ALK kinase [2] = biological target: T1, ALK kinase; experiment: ALK inhibition activity by Caliper assay; format: biochemical; details: compound 100 nM
Procedure: Example 5 Testing the ALK Inhibition Activity of Compound by Caliper Assay
The experimental steps were as follows:
Preparation of 1×kinase reaction buffer (50 mM HEPES, PH 7.5; 0.0015% Brij-35) and kinase reaction termination solution (100 mM HEPES, PH 7.5; 0.0015% Brij-35; 0.2% Coating Reagent; 50 mM EDTA);
Preparation of experimental samples: 100 μl of 5 μM sample solution (dissolved in 100% DMSO) was added to a 96-well plate to obtain a 50×sample solution. As controls, two wells containing only 100 μL of 100% DMSO were set on the same plate. One was served as a control without samples and the other was served as a control without enzymes. 10 μL of sample and 90 μL, of 1×kinase reaction buffer were added to a 96-well plate as a transfer plate. The transfer plate was shaken for 10 minutes.
Preparation of the test plate: taking 5 μL of each of the prepared samples from the 96-well transfer plate into a 384-well plate.
Kinase reaction: to 5 μL of 5×compound solution (dissolved in DMSO, diluted 10 times with water) was added 10 μL of 2.5×ALK kinase solution (kinase was diluted with 1×kinase reaction buffer), which was incubated at room temperature for 10 min, and then 10 μL of 2.5×substrate peptide solution (FAM-labeled peptide and ATP were diluted with 1×kinase reaction buffer) was added.
Termination of the kinase reaction: 25 μL of kinase reaction termination solution was added after being reacted at 28° C. for a period of time.
The fluorescence (F) was tested on a Caliper and data was collected.
The inhibition rate of kinase activity was calculated: the percent inhibition rate of kinase activity=(FDMSO control−Fsample)/(FDMSO control−Fnegative control)×100, with DMSO as the solution control, and no kinase as the negative control.
Target sequence in this assay (Q9UM73 19-1620): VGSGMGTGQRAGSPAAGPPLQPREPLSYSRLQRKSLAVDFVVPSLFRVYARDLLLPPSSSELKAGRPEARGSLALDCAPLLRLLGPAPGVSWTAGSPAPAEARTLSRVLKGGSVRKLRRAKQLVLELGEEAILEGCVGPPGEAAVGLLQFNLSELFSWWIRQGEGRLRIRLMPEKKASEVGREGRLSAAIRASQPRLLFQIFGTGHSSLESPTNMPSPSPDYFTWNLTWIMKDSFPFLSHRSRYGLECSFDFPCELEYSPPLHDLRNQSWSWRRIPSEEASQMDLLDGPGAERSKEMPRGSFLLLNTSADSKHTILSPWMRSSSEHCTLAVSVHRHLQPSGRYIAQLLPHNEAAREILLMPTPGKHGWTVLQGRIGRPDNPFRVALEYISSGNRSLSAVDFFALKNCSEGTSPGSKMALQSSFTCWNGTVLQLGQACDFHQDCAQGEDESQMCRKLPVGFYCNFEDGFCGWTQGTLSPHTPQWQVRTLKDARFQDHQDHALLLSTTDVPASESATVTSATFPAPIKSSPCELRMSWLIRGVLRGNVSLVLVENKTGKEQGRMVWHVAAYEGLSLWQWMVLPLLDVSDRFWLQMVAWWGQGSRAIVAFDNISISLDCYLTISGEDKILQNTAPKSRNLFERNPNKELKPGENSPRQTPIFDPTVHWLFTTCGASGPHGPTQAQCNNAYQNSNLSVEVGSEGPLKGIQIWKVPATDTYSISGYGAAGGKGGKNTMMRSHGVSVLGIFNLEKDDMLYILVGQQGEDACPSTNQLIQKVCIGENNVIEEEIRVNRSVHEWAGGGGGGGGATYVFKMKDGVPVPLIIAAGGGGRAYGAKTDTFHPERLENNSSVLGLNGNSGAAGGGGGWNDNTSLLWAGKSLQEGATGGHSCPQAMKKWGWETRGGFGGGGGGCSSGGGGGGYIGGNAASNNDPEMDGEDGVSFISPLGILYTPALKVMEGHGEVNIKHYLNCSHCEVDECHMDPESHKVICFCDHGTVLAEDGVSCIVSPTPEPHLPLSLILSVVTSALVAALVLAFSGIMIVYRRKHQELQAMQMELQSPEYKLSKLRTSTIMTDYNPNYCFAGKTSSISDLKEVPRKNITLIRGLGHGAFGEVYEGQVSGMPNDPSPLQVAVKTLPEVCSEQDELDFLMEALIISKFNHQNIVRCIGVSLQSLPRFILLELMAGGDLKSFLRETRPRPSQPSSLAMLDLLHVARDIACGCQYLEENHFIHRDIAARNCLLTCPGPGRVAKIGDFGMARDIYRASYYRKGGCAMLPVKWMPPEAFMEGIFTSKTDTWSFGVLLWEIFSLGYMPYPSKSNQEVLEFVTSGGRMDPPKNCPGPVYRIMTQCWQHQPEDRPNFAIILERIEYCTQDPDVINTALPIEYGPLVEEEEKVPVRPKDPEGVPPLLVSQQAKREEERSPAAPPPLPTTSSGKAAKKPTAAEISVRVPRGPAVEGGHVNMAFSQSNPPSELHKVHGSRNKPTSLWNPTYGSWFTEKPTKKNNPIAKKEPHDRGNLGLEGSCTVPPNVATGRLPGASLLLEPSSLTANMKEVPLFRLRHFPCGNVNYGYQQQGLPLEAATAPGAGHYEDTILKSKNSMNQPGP

SU-DHL-1 cells = experiment: Inhibition of proliferation of SU-DHL-1 cells by CTG assay; format: cell-based; details: Homo sapiens, compound 100 μM, 72 hours
Procedure: Example 7 Testing the Inhibitory Effect of Formula Compound on the Proliferation of SU-DHL-1 Cells by CTG Assay
The inhibitory effect of the compound on the proliferation of SU-DHL-1 cells ([…]) was determined by the […] method in vitro. The Cells were cultured and the compound was prepared referring to the method of […], and the culture time after administration was 72 hours. Subsequently, an appropriate amount of CTG reagent was added, the luminescence value was measured, and the inhibition rate was calculated.

Row | SMILES | inhibition at 1 µM (ALK kinase [1]) [%] | inhibition at 0.1 µM (ALK kinase [2]) [%] | inhibition at 100 µM (SU-DHL-1 cells) [%]
1 | Cc1cc(Nc2ncc(Cl)c(Nc3ccccc3S(=O)(=O)C(C)C)n2)c(OC(C)C)cc1C1CCN(CC(=O)NCCOCCOCCOCCOCCOc2cccc3c2C(=O)N(C2CCC(=O)NC2=O)C3=O)CC1 (centres unmarked) [Compound 43] | 50 to 90 |  | 
2 | Cc1cc(Nc2ncc(Cl)c(Nc3ccccc3S(=O)(=O)C(C)C)n2)c(OC(C)C)cc1C1CCN(CC(=O)NCCOCCOCCOCCOCCOCCOc2cccc3c2C(=O)N(C2CCC(=O)NC2=O)C3=O)CC1 (centres unmarked) [Compound 44] | 50 to 90 |  | 
3 | Cc1cc(Nc2ncc(Cl)c(Nc3ccccc3S(=O)(=O)C(C)C)n2)c(OC(C)C)cc1C1CCN(CCCCOc2cccc3c2C(=O)N(C2CCC(=O)NC2=O)C3=O)CC1 (centres unmarked) [Compound 23] | 50 to 90 |  | 
4 | Cc1cc(Nc2ncc(Cl)c(Nc3ccccc3S(=O)(=O)C(C)C)n2)c(OC(C)C)cc1C1CCN(CCCCCNc2cccc3c2C(=O)N(C2CCC(=O)NC2=O)C3=O)CC1 (centres unmarked) [Compound 28] | > 90 |  | 
5 | Cc1cc(Nc2ncc(Cl)c(Nc3ccccc3S(=O)(=O)C(C)C)n2)c(OC(C)C)cc1C1CCN(CCCCCOc2cccc3c2C(=O)N(C2CCC(=O)NC2=O)C3=O)CC1 (centres unmarked) [Compound 22] | 50 to 90 |  | 
6 | Cc1cc(Nc2ncc(Cl)c(Nc3ccccc3S(=O)(=O)C(C)C)n2)c(OC(C)C)cc1C1CCN(CCCC(=O)Nc2cccc3c2C(=O)N(C2CCC(=O)NC2=O)C3=O)CC1 (centres unmarked) [Compound 17] | > 90 |  | 
7 | Cc1cc(Nc2ncc(Cl)c(Nc3ccccc3S(=O)(=O)C(C)C)n2)c(OC(C)C)cc1C1CCN(CCOCCOCCOCCOCCOCCOc2cccc3c2C(=O)N(C2CCC(=O)NC2=O)C3=O)CC1 (centres unmarked) [Compound 26] | 50 to 90 |  | 
8 | Cc1cc(Nc2ncc(Cl)c(Nc3ccccc3S(=O)(=O)C(C)C)n2)c(OC(C)C)cc1C1CCN(CC(=O)NCCOCCOCCOCCNc2cccc3c2C(=O)N(C2CCC(=O)NC2=O)C3=O)CC1 (centres unmarked) [Compound 36] | > 90 |  | 
9 | Cc1cc(Nc2ncc(Cl)c(Nc3ccccc3S(=O)(=O)C(C)C)n2)c(OC(C)C)cc1C1CCN(C(=O)COCCOCCNc2cccc3c2C(=O)N(C2CCC(=O)NC2=O)C3=O)CC1 (centres unmarked) [Compound 10] | > 90 | 99 | 
10 | Cc1cc(Nc2ncc(Cl)c(Nc3ccccc3S(=O)(=O)C(C)C)n2)c(OC(C)C)cc1C1CCN(CCCCNc2cccc3c2C(=O)N(C2CCC(=O)NC2=O)C3=O)CC1 (centres unmarked) [Compound 29] | 50 to 90 |  | 
11 | Cc1cc(Nc2ncc(Cl)c(Nc3ccccc3S(=O)(=O)C(C)C)n2)c(OC(C)C)cc1C1CCN(CCOCCOCCOCCOCCNc2cccc3c2C(=O)N(C2CCC(=O)NC2=O)C3=O)CC1 (centres unmarked) [Compound 31] | > 90 |  | 
12 | Cc1cc(Nc2ncc(Cl)c(Nc3ccccc3S(=O)(=O)C(C)C)n2)c(OC(C)C)cc1C1CCN(CC(=O)NCCOCCOCCOCCOc2cccc3c2C(=O)N(C2CCC(=O)NC2=O)C3=O)CC1 (centres unmarked) [Compound 42] | > 90 |  | 
13 | Cc1cc(Nc2ncc(Cl)c(Nc3ccccc3S(=O)(=O)C(C)C)n2)c(OC(C)C)cc1C1CCN(CCOCCOCCOCCOc2cccc3c2C(=O)N(C2CCC(=O)NC2=O)C3=O)CC1 (centres unmarked) [Compound 15] | > 90 | 95 | 100
14 | Cc1cc(Nc2ncc(Cl)c(Nc3ccccc3S(=O)(=O)C(C)C)n2)c(OC(C)C)cc1C1CCN(CCCOc2cccc3c2C(=O)N(C2CCC(=O)NC2=O)C3=O)CC1 (centres unmarked) [Compound 24] | 50 to 90 |  | 
15 | Cc1cc(Nc2ncc(Cl)c(Nc3ccccc3S(=O)(=O)C(C)C)n2)c(OC(C)C)cc1C1CCN(CC(=O)NCCOCCOCCOc2cccc3c2C(=O)N(C2CCC(=O)NC2=O)C3=O)CC1 (centres unmarked) [Compound 41] | > 90 |  | 
16 | Cc1cc(Nc2ncc(Cl)c(Nc3ccccc3S(=O)(=O)C(C)C)n2)c(OC(C)C)cc1C1CCN(CC(=O)NCCOCCOCCOCCOCCNc2cccc3c2C(=O)N(C2CCC(=O)NC2=O)C3=O)CC1 (centres unmarked) [Compound 37] | 50 to 90 |  | 
17 | Cc1cc(Nc2ncc(Cl)c(Nc3ccccc3S(=O)(=O)C(C)C)n2)c(OC(C)C)cc1C1CCN(CCCCC(=O)Nc2cccc3c2C(=O)N(C2CCC(=O)NC2=O)C3=O)CC1 (centres unmarked) [Compound 16] | > 90 |  | 
18 | Cc1cc(Nc2ncc(Cl)c(Nc3ccccc3S(=O)(=O)C(C)C)n2)c(OC(C)C)cc1C1CCN(CCC(=O)Nc2cccc3c2C(=O)N(C2CCC(=O)NC2=O)C3=O)CC1 (centres unmarked) [Compound 18] | > 90 |  | 
19 | Cc1cc(Nc2ncc(Cl)c(Nc3ccccc3S(=O)(=O)C(C)C)n2)c(OC(C)C)cc1C1CCN(CCOCCOCCC(=O)Nc2cccc3c2C(=O)N(C2CCC(=O)NC2=O)C3=O)CC1 (centres unmarked) [Compound 19] | > 90 |  | 
20 | Cc1cc(Nc2ncc(Cl)c(Nc3ccccc3S(=O)(=O)C(C)C)n2)c(OC(C)C)cc1C1CCN(CCOCCOCCOc2cccc3c2C(=O)N(C2CCC(=O)NC2=O)C3=O)CC1 (centres unmarked) [Compound 7] | > 90 | 97 | 98
21 | Cc1cc(Nc2ncc(Cl)c(Nc3ccccc3S(=O)(=O)C(C)C)n2)c(OC(C)C)cc1C1CCN(CCOCCOCCOCCOCCOCCNc2cccc3c2C(=O)N(C2CCC(=O)NC2=O)C3=O)CC1 (centres unmarked) [Compound 32] | 50 to 90 |  | 

The next lines start with results.

Row | inhibition at 1 µM (ALK kinase [1]) [%] | inhibition at 0.1 µM (ALK kinase [2]) [%] | SMILES | inhibition at 100 µM (SU-DHL-1 cells) [%]
22 | > 90 |  | Cc1cc(Nc2ncc(Cl)c(Nc3ccccc3S(=O)(=O)C(C)C)n2)c(OC(C)C)cc1C1CCN(CCOCCOCCOCCC(=O)Nc2cccc3c2C(=O)N(C2CCC(=O)NC2=O)C3=O)CC1 (centres unmarked) [Compound 20] | 
23 | > 90 | 69 | Cc1cc(Nc2ncc(Cl)c(Nc3ccccc3S(=O)(=O)C(C)C)n2)c(OC(C)C)cc1C1CCN(S(=O)(=O)CCCCCOc2cccc3c2C(=O)N(C2CCC(=O)NC2=O)C3=O)CC1 (centres unmarked) [Compound 13] | 
24 | > 90 | 89 | Cc1cc(Nc2ncc(Cl)c(Nc3ccccc3S(=O)(=O)C(C)C)n2)c(OC(C)C)cc1C1CCN(CCOCCOCCOCCNc2cccc3c2C(=O)N(C2CCC(=O)NC2=O)C3=O)CC1 (centres unmarked) [Compound 14] | 99
25 | 50 to 90 |  | Cc1cc(Nc2ncc(Cl)c(Nc3ccccc3S(=O)(=O)C(C)C)n2)c(OC(C)C)cc1C1CCN(CC(=O)NCCOCCOCCOCCOCCOCCNc2cccc3c2C(=O)N(C2CCC(=O)NC2=O)C3=O)CC1 (centres unmarked) [Compound 38] | 
26 | 50 to 90 |  | Cc1cc(Nc2ncc(Cl)c(Nc3ccccc3S(=O)(=O)C(C)C)n2)c(OC(C)C)cc1C1CCN(CCOCCOc2cccc3c2C(=O)N(C2CCC(=O)NC2=O)C3=O)CC1 (centres unmarked) [Compound 21] | 
27 | > 90 |  | Cc1cc(Nc2ncc(Cl)c(Nc3ccccc3S(=O)(=O)C(C)C)n2)c(OC(C)C)cc1C1CCN(CCOCCOCCOCCOCCOc2cccc3c2C(=O)N(C2CCC(=O)NC2=O)C3=O)CC1 (centres unmarked) [Compound 25] | 
28 | > 90 | 98 | Cc1cc(Nc2ncc(Cl)c(Nc3ccccc3S(=O)(=O)C(C)C)n2)c(OC(C)C)cc1C1CCN(CCOCCOCCNc2cccc3c2C(=O)N(C2CCC(=O)NC2=O)C3=O)CC1 (centres unmarked) [Compound 45] | 97
29 | > 90 |  | Cc1cc(Nc2ncc(Cl)c(Nc3ccccc3S(=O)(=O)C(C)C)n2)c(OC(C)C)cc1C1CCN(CC(=O)NCCNc2cccc3c2C(=O)N(C2CCC(=O)NC2=O)C3=O)CC1 (centres unmarked) [Compound 33] | 
30 | 50 to 90 |  | Cc1cc(Nc2ncc(Cl)c(Nc3ccccc3S(=O)(=O)C(C)C)n2)c(OC(C)C)cc1C1CCN(CCCNc2cccc3c2C(=O)N(C2CCC(=O)NC2=O)C3=O)CC1 (centres unmarked) [Compound 30] | 
31 | > 90 | 98 | Cc1cc(Nc2ncc(Cl)c(Nc3ccccc3S(=O)(=O)C(C)C)n2)c(OC(C)C)cc1C1CCN(CCCCCC(=O)Nc2cccc3c2C(=O)N(C2CCC(=O)NC2=O)C3=O)CC1 (centres unmarked) [Compound 3] | 72
32 | > 90 |  | Cc1cc(Nc2ncc(Cl)c(Nc3ccccc3S(=O)(=O)C(C)C)n2)c(OC(C)C)cc1C1CCN(CC(=O)NCCOc2cccc3c2C(=O)N(C2CCC(=O)NC2=O)C3=O)CC1 (centres unmarked) [Compound 39] | 
33 | > 90 |  | Cc1cc(Nc2ncc(Cl)c(Nc3ccccc3S(=O)(=O)C(C)C)n2)c(OC(C)C)cc1C1CCN(CCOCCNc2cccc3c2C(=O)N(C2CCC(=O)NC2=O)C3=O)CC1 (centres unmarked) [Compound 27] | 
34 | > 90 |  | Cc1cc(Nc2ncc(Cl)c(Nc3ccccc3S(=O)(=O)C(C)C)n2)c(OC(C)C)cc1C1CCN(CC(=O)NCCOCCOc2cccc3c2C(=O)N(C2CCC(=O)NC2=O)C3=O)CC1 (centres unmarked) [Compound 40] | 
35 | > 90 |  | Cc1cc(Nc2ncc(Cl)c(Nc3ccccc3S(=O)(=O)C(C)C)n2)c(OC(C)C)cc1C1CCN(CC(=O)NCCOCCOCCNc2cccc3c2C(=O)N(C2CCC(=O)NC2=O)C3=O)CC1 (centres unmarked) [Compound 35] | 
